From patent US20030232114A1, “Method for liquid enrichment with oxygen and applications of enriched liquids” (priority 2002, published 2003)

Tested on: rats having a myocardial infarction due to a restriction of the coronaries
Assay: Oxygen consumption in damaged tissues of rats with myocardial infarction (acute occlusion of blood vessels)
Assay type: in vivo
Conditions: conventional oxygen treatment by inhalation by means of a cannula, monitored for five days
Experimental: The oxygen enriched solutions of the invention were tested on experimental animals subjected to an acute occlusion of blood vessels which provoked degenerative changes of the interested tissues.
An oxygen enriched physiological solution of 0.3 cc having an oxygen partial pressure of 2 bar was intravenously administered at a rate of 1 g/min twice a days to a first group of 5 rats having a myocardial infarction due to a restriction of the coronaries. A second group of rats with the same disease, was subjected to a conventional oxygen treatment by inhalation by means of a cannula.
The results of the treatment were monitored and scheduled for five days. The first group of animals, treated by administering a solution in accordance with an embodiment of the present invention consumed 20% of oxygen in the damaged tissues whereas the second group which received the oxygen by inhalation consumed only 5% of oxygen in the damaged tissues.

O=O [oxygen]
oxygen consumed in the damaged tissues: 5%
